Assay in all cases: inhibition of tumour cell growth, NCI panel, 48 h
Test [1] deals with MDA-N.
Test [2] relates to RPMI-8226.
Test [3] deals with OVCAR-8.
Test [4] has as its system UACC-62.
For test [5], the system named is NCI-H522.
Test [6] concerns HCT-15.
Test [7] concerns SF-539.
The subject of test [8] is EKVX.
For test [9], the system named is A549.
For test [10], the system named is CCRF-CEM.
The subject of test [11] is K562.
For test [12], the system named is SNB-19.
Test [13] concerns OVCAR-4.
Test [14] deals with PC-3.
The test system of test [15] is OVCAR-3.
The test system of test [16] is CAKI-1.
The test system of test [17] is BT-549.
In test [18] the test system is A498.
In test [19] the test system is HOP-92.

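48-hour exposure; five concentrations; linearly interpolated endpoints. At the GI50, growth is halved.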 Calls of active or inactive are those of the source. No stated cut-off is given here; in the data, active = GI50 up to about 1.1 µM and inactive = higher.

`O=C1N(c2ccccc2)C(=S)/C(=C/c2ccc(Cl)cc2)N1c1ccc(Cl)cc1`: the GI50 in test [1] is 32.9 µM (inactive); in test [2], 18.3 µM (inactive); in test [3], 33.6 µM (inactive); in test [4], 15.8 µM (inactive); in [5] it was 15.9 µM (inactive); in test [6] it was 26.9 µM. The GI50 in test [7] was 21.1 µM (inactive); in [8], 38.5 µM (inactive); in test [9], > 100 µM (inactive); in [10] it was 18.1 µM (inactive); in test [11] it was 41.9 µM (inactive); in test [12] it was 48.4 µM (inactive). The GI50 was 28.2 µM (inactive) in [13]; > 100 µM (inactive) in test [14]; 35.2 µM (inactive) in [15]; > 100 µM (inactive) in [16]; 44.4 µM (inactive) in [17]; 79.8 µM (inactive) in [18].

For the compound `O=C(O)C12C3CCC(CC3)C1(C(=O)O)C1CCC2C1` (stereo unspecified), the GI50 in test [1] was > 100 µM (inactive); in test [2] it was > 100 µM (inactive); in test [3] it was > 100 µM (inactive); in [4], > 100 µM (inactive); in test [5], 86.1 µM (inactive); in [6], more than 100 µM. In addition, the GI50 in [7], in test [9], in [10], in [11], in [12] and in test [14] was > 100 µM (inactive) each time. The GI50 in test [15], in test [16], in [17] and in test [18] was > 100 µM (inactive) each time.

In the case of `Nc1ccc(OCCCc2c(-c3ccccc3)[nH]c(N)nc2=O)cc1`, the GI50 in [1] is 31.9 µM (inactive); in test [2], 84.9 µM (inactive); in [3], 44.4 µM (inactive); in test [4], 16.1 µM (inactive); in [5], 18.4 µM (inactive); in test [6] it was more than 100 µM. Besides, the GI50 in test [7] is 28.1 µM (inactive); in [8], 0.398 µM (active); in test [10], 43 µM (inactive); in [11] it was 74.5 µM (inactive); in test [12], 67.6 µM (inactive); in [13], 31.6 µM (inactive). Also, the GI50 in test [14] was 41.7 µM (inactive); in [15] it was 25.2 µM (inactive); in test [16], 91.6 µM (inactive); in test [17] it was 22.5 µM (inactive); in test [18] it was 16.9 µM (inactive).

`COc1cc(Br)cc2cc(-c3cn4ccsc4n3)c(=O)oc12`: the GI50 in test [1] was 17 µM (inactive); in test [2], 33.2 µM (inactive); in test [3], 45.8 µM (inactive); in test [4], 22.2 µM (inactive); in test [5] it was 31 µM (inactive); in test [6], 33 µM. In addition, the GI50 in test [7] was 36.2 µM (inactive); in test [8], 29.2 µM (inactive); in test [9], 30.3 µM (inactive); in test [10], 35 µM (inactive); in [11] it was 32.1 µM (inactive); in test [12], 30.4 µM (inactive). In addition, the GI50 was 51.2 µM (inactive) in [13]; 11.1 µM (inactive) in test [19]; 25.2 µM (inactive) in [14]; 35 µM (inactive) in test [15]; 35 µM (inactive) in test [16]; 20.3 µM (inactive) in test [17].

On to `O=C(O)Cc1ccc2c(c1)/C(=C1/Nc3ccccc3C1=O)C(=O)N2`, for which the GI50 in [1] is 38.4 µM (inactive); in test [2], 27.9 µM (inactive); in test [3], 32 µM (inactive); in test [4], 24.4 µM (inactive); in [5], 35 µM (inactive); in test [6] it was 27.6 µM. For the same compound, the GI50 in test [8] was 26.2 µM (inactive); in test [9], 80.9 µM (inactive); in test [10], 34.4 µM (inactive); in [11], 19.2 µM (inactive); in test [12] it was 66.2 µM (inactive); in test [13], 21.9 µM (inactive). For the same compound, the GI50 in test [14] was 28.6 µM (inactive); in test [15], 14.1 µM (inactive); in [16], 24.8 µM (inactive); in test [17], 44.5 µM (inactive); in test [18], 31.7 µM (inactive).

With `CC1(C)CN=C(Nc2ccc(Cl)cc2)S1`, the GI50 in [1] was > 100 µM (inactive); in test [2] it was 52.6 µM (inactive); in [3] it was > 100 µM (inactive); in test [4], 78.7 µM (inactive); in [5], > 100 µM (inactive); in test [6], more than 100 µM. Also, the GI50 in test [7] was > 100 µM (inactive); in test [8], 64 µM (inactive); in test [9] it was > 100 µM (inactive); in [10], 74.3 µM (inactive); in [11], > 100 µM (inactive); in test [12] it was > 100 µM (inactive). Also, the GI50 in [13] was 72.3 µM (inactive); in test [19], 29.5 µM (inactive); in [14], > 100 µM (inactive); in test [15], 71.9 µM (inactive); in test [16] it was > 100 µM (inactive); in [17], > 100 µM (inactive).

`O=C(c1ccccc1)n1c2ccc(Br)cc2c2nc3ccccc3nc21`: the GI50 in test [1] is > 100 µM (inactive); in test [2], 27.7 µM (inactive); in [3], > 100 µM (inactive); in [4], > 100 µM (inactive); in test [5], 43.7 µM (inactive); in test [6] it was more than 100 µM. Also, the GI50 was > 100 µM (inactive) in [7]; > 100 µM (inactive) in [8]; 58.9 µM (inactive) in test [10]; 72.8 µM (inactive) in [11]; > 100 µM (inactive) in [12]; 48.6 µM (inactive) in test [13]. Further, the GI50 was > 100 µM (inactive) in test [19]; 43.2 µM (inactive) in [14]; 34.9 µM (inactive) in test [15]; > 100 µM (inactive) in [16]; > 100 µM (inactive) in [17].

Regarding `C[C@]1(S(=O)(=O)c2ccccc2)C[C@H]2N(Cc3ccccc3)[C@@H]1CCC21OCCO1`, the GI50 in [1] was > 100 µM (inactive); in test [3], > 100 µM (inactive); in [4] it was > 100 µM (inactive); in test [5] it was 72.6 µM (inactive); in test [6], 63.1 µM; in test [8], > 100 µM (inactive). The GI50 in test [9] was 86.1 µM (inactive); in test [10], 49.1 µM (inactive); in [11] it was > 100 µM (inactive); in test [12], > 100 µM (inactive); in [13], 36.3 µM (inactive); in [19] it was 88.1 µM (inactive). Besides, the GI50 in test [14] was 70.5 µM (inactive); in [15], > 100 µM (inactive); in test [16], > 100 µM (inactive); in [17], > 100 µM (inactive).

As to `CCn1c2c(c3c(C(=O)OC)c(O)ccc31)C(=O)c1ccccc1C2=O`, the GI50 is 11.9 µM (inactive) in test [1]; 7.6 µM (inactive) in test [2]; 11.6 µM (inactive) in [3]; 5.9 µM (inactive) in test [5]; 7.85 µM in test [6]; 13.2 µM (inactive) in test [7]. Moreover, the GI50 in [8] was 26 µM (inactive); in test [9] it was 13.9 µM (inactive); in [10], 15 µM (inactive); in test [11] it was 20.4 µM (inactive); in [12], 22.3 µM (inactive); in [13], 10.2 µM (inactive). The GI50 in test [19] was 5.52 µM (inactive); in test [14] it was 12.4 µM (inactive); in test [15], 16.4 µM (inactive); in test [16], 15.5 µM (inactive); in test [17] it was 12.5 µM (inactive).

As to `CCOC(=O)C12OC(CCC1=O)C(C(=O)OC)=C2C(=O)OC` (stereo unspecified), the GI50 in [1] was > 10 µM (inactive); in test [2] it was > 10 µM (inactive); in test [3], > 10 µM (inactive); in test [4], > 10 µM (inactive); in [5], > 10 µM (inactive); in test [6], more than 10 µM. In addition, the GI50 in test [7], in test [8], in test [9], in test [10], in [11] and in test [12] was > 10 µM (inactive) each time. Also, the GI50 in test [13], in test [14], in [15], in test [16], in test [17] and in test [18] was > 10 µM (inactive) in each case.

As for `Cc1csc2nc3[nH]ncc3c(=O)n12`, the GI50 in test [1] is > 100 µM (inactive); in test [2], > 100 µM (inactive); in [3] it was > 100 µM (inactive); in [4], > 100 µM (inactive); in test [5] it was > 100 µM (inactive); in [6] it was more than 100 µM. For the same compound, the GI50 in test [7], in test [8], in test [9], in test [10], in test [11] and in [12] was > 100 µM (inactive) in each case. Also, the GI50 in test [13], in test [14], in [15], in [16] and in test [17] was > 100 µM (inactive) each time.

As for `C=C(C(=O)OC)[C@@H]1C[C@@H](OC(C)=O)C2=C[C@H](C[C@@]3(C)O[C@@H]3C3=CC(C)=C(O3)[C@H]1OC(C)=O)OC2=O` [BIPINNATIN I], the GI50 in [1] is 19.4 µM (inactive); in test [2], 5.75 µM (inactive); in test [3], 17.3 µM (inactive); in test [4] it was 18.4 µM (inactive); in test [5], 2.59 µM (inactive); in test [6], 17.5 µM. The GI50 is 31.4 µM (inactive) in [7]; 18.4 µM (inactive) in test [8]; 40.7 µM (inactive) in test [9]; 0.0429 µM (active) in test [10]; 6.84 µM (inactive) in [11]; 47.6 µM (inactive) in test [12]. Moreover, the GI50 in test [13] was 35.2 µM (inactive); in test [14], 25.2 µM (inactive); in test [16] it was 7.74 µM (inactive); in test [17], 12.9 µM (inactive); in test [18] it was 16.9 µM (inactive).

The values are drawn from ChEMBL document CHEMBL1201862, “PubChem BioAssay data set” (2004).
